Test results from article PMC5552880, “The Bitter Taste Receptor TAS2R16 Achieves High Specificity and Accommodates Diverse Glycoside Ligands by using a Two-faced Binding Pocket” (Scientific Reports, 2017).

Experiments:
Format in all cases: cell-based
W261A TAS2R16 = target: T1, W261A TAS2R16 (Homo sapiens, UniProt Q9NYV7, W261A); assay: Ca2+ flux assay, W261A TAS2R16 variant
T1 construct: FLAG (N); expressed in transfected cells; host or cells: HEK-293T
T1 sequence (Q9NYV7 1-291 W261A): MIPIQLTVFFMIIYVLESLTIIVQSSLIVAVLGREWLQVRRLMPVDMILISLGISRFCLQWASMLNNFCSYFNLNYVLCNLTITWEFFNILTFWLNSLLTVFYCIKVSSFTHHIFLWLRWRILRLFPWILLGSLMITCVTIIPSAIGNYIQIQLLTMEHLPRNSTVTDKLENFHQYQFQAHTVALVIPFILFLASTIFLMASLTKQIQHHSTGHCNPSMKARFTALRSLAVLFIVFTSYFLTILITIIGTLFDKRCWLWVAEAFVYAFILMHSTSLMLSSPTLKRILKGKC
Experimental: (§1) The TAS2R16 mutation library was tested for function using a Ca^2+ flux assay as described previously. Later screens of individual TAS2R16 mutant clones used 4-nitrophenyl-β-D-glucopyranoside. Briefly, HEK-293T cells, in poly-lysine coated, black 384-well plates with clear bottoms (Costar), were transfected with the TAS2R16 mutation library, and a plasmid expressing a Gα16 chimera containing the last 44 amino acids of rat gustducin (Gα16gust44). Cells were incubated for 22 hours at 37 °C then washed twice with a calcium indicator dye in HBSS containing 20 mM HEPES (Calcium 4 Assay kit, Molecular Devices), incubated with HBSS for 1.5 hr, then moved to a Flexstation II-384 (Molecular Devices) set at 32 °C. […] Concentrations for mutation library screening were chosen to be approximately 2 to 3 times higher than the EC50 values for the ligands to maximize the sensitivity of detecting decreases in signaling due to the mutation in each clone.
For Ca^2+ flux assays, the value of fluorescence at 30 seconds after ligand addition (the time of peak signal for wild-type TAS2R16) was used as the maximum value. […] Raw data obtained from surface expression and flux experiments were normalized to the values for wild-type TAS2R16 on each plate. Data sets were analyzed and represented as percentage over baseline signal. Mean and standard deviation values were calculated for each clone from replicate assay data.
Ligand dose-response data was analyzed with Graphpad Prism 5 software. Data was baseline subtracted and then fit using a sigmoidal dose-response (variable slope) equation.

R56P TAS2R16 = target: T2, R56P TAS2R16 (Homo sapiens, UniProt Q9NYV7, R56P); assay: Ca2+ flux assay, mutation library clone R56P; conditions: 3 mM salicin, mean (range, max-min), n=3
T2 construct: FLAG (N); expressed in transfected cells; host or cells: HEK-293T
Experimental: as §1
(§2) For Ca^2+ flux assays, the value of fluorescence at 30 seconds after ligand addition (the time of peak signal for wild-type TAS2R16) was used as the maximum value. […] Data sets were analyzed and represented as percentage over baseline signal. Mean and standard deviation values were calculated for each clone from replicate assay data.

C58R TAS2R16 = target: T3, C58R TAS2R16 (Homo sapiens, UniProt Q9NYV7, C58R); assay: Ca2+ flux assay, mutation library clone C58R; conditions: 3 mM salicin, mean (range, max-min), n=3
T3 construct: V5; expressed in transfected cells; host or cells: HEK-293T
Experimental: as §1, §2

Y14H TAS2R16 = target: T4, Y14H TAS2R16 (Homo sapiens, UniProt Q9NYV7, Y14H); assay: Ca2+ flux assay, mutation library clone Y14H; conditions: 3 mM salicin, mean (range, max-min), n=3
T4 construct: FLAG (N); expressed in transfected cells; host or cells: HEK-293T
Experimental: as §1, §2

L59P TAS2R16 = target: T5, L59P TAS2R16 (Homo sapiens, UniProt Q9NYV7, L59P); assay: Ca2+ flux assay, mutation library clone L59P; conditions: 3 mM salicin, mean (range, max-min), n=3
T5 construct: Each construct in the mutation library was tested for full-length TAS2R16 translation; V5; expressed in transfected cells; host or cells: HEK-293T
Experimental: as §1, §2

L191R TAS2R16 = target: T6, L191R TAS2R16 (Homo sapiens, UniProt Q9NYV7, L191R); assay: Ca2+ flux assay, mutation library clone L191R; conditions: 3 mM salicin, mean (range, max-min), n=3
T6 construct: Each construct in the mutation library was tested for full-length TAS2R16 translation; V5; expressed in transfected cells; host or cells: HEK-293T
Experimental: as §1, §2

T2 sequence (Q9NYV7 whole entry R56P): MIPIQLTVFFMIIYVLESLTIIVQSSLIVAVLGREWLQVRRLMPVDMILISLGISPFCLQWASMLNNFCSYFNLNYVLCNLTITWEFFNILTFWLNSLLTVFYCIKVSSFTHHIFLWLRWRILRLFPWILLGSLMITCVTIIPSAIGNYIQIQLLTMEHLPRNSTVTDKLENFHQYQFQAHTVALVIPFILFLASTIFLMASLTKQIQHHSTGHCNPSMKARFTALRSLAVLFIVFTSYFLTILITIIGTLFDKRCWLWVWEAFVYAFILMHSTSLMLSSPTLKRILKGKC
T6 sequence (Q9NYV7 whole entry L191R): as the sequence (Q9NYV7 whole entry R56P) above, with P56R, L191R counted along it
T5 sequence (Q9NYV7 whole entry L59P): as the sequence (Q9NYV7 whole entry R56P) above, with P56R, L59P counted along it
T4 sequence (Q9NYV7 whole entry Y14H): as the sequence (Q9NYV7 whole entry R56P) above, with Y14H, P56R counted along it
T3 sequence (Q9NYV7 whole entry C58R): as the sequence (Q9NYV7 whole entry R56P) above, with P56R, C58R counted along it

OCc1ccccc1O[C@@H]1O[C@H](CO)[C@@H](O)[C@H](O)[C@H]1O [salicin]
EC50 (W261A TAS2R16; Fig. 5b dose-response, W261A TAS2R16): ~13.4 mM
activation of W261A variant (W261A TAS2R16; W261A TAS2R16, relative to wild-type): eliminated activation
Ca2+ flux in response to salicin (R56P TAS2R16): 2 (1) % of wild-type
Ca2+ flux in response to salicin (C58R TAS2R16): 5 (2) % of wild-type
Ca2+ flux in response to salicin (Y14H TAS2R16): 9 (9) % of wild-type
Ca2+ flux in response to salicin (L59P TAS2R16): 2 (3) % of wild-type
Ca2+ flux in response to salicin (L191R TAS2R16): 1 (3) % of wild-type
